Reference: ChEMBL document CHEMBL2375248, “C1 and N5 derivatives of cerpegin: synthesis of a new series based on structure-activity relationships to optimize their inhibitory effect on 20S proteasome” (Bioorg Med Chem Lett, 2013)
The source made the active and inactive calls. The rule behind the calls is not given here.

Tested on: not listed separately
Experiment: Inhibition of chymotrypsin-like activity of 20S proteasome in rabbit erythrocytes using Suc-LLVY-AMC as substrate preincubated for 15 mins measured after 45 mins by fluorescence assay
Assay type: cell-based, Oryctolagus cuniculus
Details: not given

Q: For NS(=O)(=O)c1ccc(-n2ccc3c(c2=O)C(=O)OC32CCCCC2)cc1, which IC50 is on record?
A: Not Active

Q: Which IC50 does the source give for CC1(CCc2ccccc2)OC(=O)c2c1ccn(CCCN1CCOCC1)c2=O (racemic) here?
A: Not Active

Q: For Cn1ccc2c(c1=O)C(=O)OC2(C)c1ccccc1 (racemic), which IC50 is on record?
A: Not Active

Q: For O=C1OC2(CCCCC2)c2ccn(CCCN3CCOCC3)c(=O)c21, which IC50 is on record?
A: Not Active

Q: Which IC50 does the source give for CC1(C)OC(=O)c2c1ccn(-c1ccc(S(=O)(=O)NC(=O)c3ccccc3)cc1)c2=O here?
A: Not Active

Q: With CC1(c2ccccc2)OC(=O)c2c1ccn(CCCN1CCOCC1)c2=O (racemic) as the molecule, how does the IC50 read?
A: Not Active

Q: Which IC50 does the source give for CC1(C)OC(=O)c2c1ccn(-c1ccc(S(N)(=O)=O)cc1)c2=O here?
A: Not Active

Q: Which IC50 does the source give for CC(C)CC1(C)OC(=O)c2c1ccn(-c1ccc(S(N)(=O)=O)cc1)c2=O (racemic) here?
A: Not Active

Q: With CCN(CC)CC(O)Cn1ccc2c(c1=O)C(=O)OC21CCOC(C)(C)C1 (stereo not drawn) as the molecule, how does the IC50 read?
A: Not Active

Q: Which IC50 does the source give for O=C1OC2(CCCCC2)c2ccn(CC(O)CO)c(=O)c21 (stereo not drawn) here?
A: Not Active

Q: Which IC50 does the source give for O=C1OC2(CCCCC2)c2ccn(CC(O)c3ccccc3)c(=O)c21 (stereo not drawn) here?
A: Not Active

Q: Which IC50 does the source give for CCC1(C)OC(=O)c2c1ccn(-c1ccc(S(N)(=O)=O)cc1)c2=O (racemic) here?
A: Not Active

Q: With CCN(CC)CC(O)Cn1ccc2c(c1=O)C(=O)OC2(C)CCc1ccccc1 (mixture of isomers) as the molecule, how does the IC50 read?
A: Not Active

Q: For CC(C)CC1(C)OC(=O)c2c1ccn(CC(O)c1ccccc1)c2=O (stereo not drawn), which IC50 is on record?
A: Not Active

Same assay, conditions: read-out: IC50

Q: With C[C@@]12OC(=O)[C@]1([C@@H](O)[C@@H]1C=CCCC1)NC(=O)[C@@H]2CCCl [MARIZOMIB] as the molecule, how does the IC50 read?
A: 0.0026 µM

Q: Which IC50 does the source give for CC1(Cc2ccccc2)OC(=O)c2c1ccn(CCc1ccc(Cl)cc1)c2=O (racemic) here?
A: 22.5 µM

Tested on: not listed separately
Experiment: Inhibition of trypsin-like activity of 20S proteasome in rabbit erythrocytes using Boc-LRR-AMC as substrate preincubated for 15 mins measured after 45 mins by fluorescence assay
Assay type: cell-based, Oryctolagus cuniculus
Details: not given

Q: For CC1(Cc2ccccc2)OC(=O)c2c1ccn(CCc1ccc(Cl)cc1)c2=O (racemic), which IC50 is on record?
A: Not Active

Q: With NS(=O)(=O)c1ccc(-n2ccc3c(c2=O)C(=O)OC32CCCCC2)cc1 as the molecule, how does the IC50 read?
A: Not Active

Q: For CC1(CCc2ccccc2)OC(=O)c2c1ccn(CCCN1CCOCC1)c2=O (racemic), which IC50 is on record?
A: Not Active

Q: Which IC50 does the source give for Cn1ccc2c(c1=O)C(=O)OC2(C)c1ccccc1 (racemic) here?
A: Not Active

Q: Which IC50 does the source give for O=C1OC2(CCCCC2)c2ccn(CCCN3CCOCC3)c(=O)c21 here?
A: Not Active

Q: For CC1(C)OC(=O)c2c1ccn(-c1ccc(S(=O)(=O)NC(=O)c3ccccc3)cc1)c2=O, which IC50 is on record?
A: Not Active

Q: For CC1(c2ccccc2)OC(=O)c2c1ccn(CCCN1CCOCC1)c2=O (racemic), which IC50 is on record?
A: Not Active

Q: With CC1(C)OC(=O)c2c1ccn(-c1ccc(S(N)(=O)=O)cc1)c2=O as the molecule, how does the IC50 read?
A: Not Active

Q: Which IC50 does the source give for CC(C)CC1(C)OC(=O)c2c1ccn(-c1ccc(S(N)(=O)=O)cc1)c2=O (racemic) here?
A: Not Active

Q: With CCN(CC)CC(O)Cn1ccc2c(c1=O)C(=O)OC21CCOC(C)(C)C1 (stereo not drawn) as the molecule, how does the IC50 read?
A: Not Active

Q: Which IC50 does the source give for O=C1OC2(CCCCC2)c2ccn(CC(O)CO)c(=O)c21 (stereo not drawn) here?
A: Not Active

Q: Which IC50 does the source give for O=C1OC2(CCCCC2)c2ccn(CC(O)c3ccccc3)c(=O)c21 (stereo not drawn) here?
A: Not Active

Q: Which IC50 does the source give for CCC1(C)OC(=O)c2c1ccn(-c1ccc(S(N)(=O)=O)cc1)c2=O (racemic) here?
A: Not Active

Q: For CCN(CC)CC(O)Cn1ccc2c(c1=O)C(=O)OC2(C)CCc1ccccc1 (mixture of isomers), which IC50 is on record?
A: Not Active

Q: For CC(C)CC1(C)OC(=O)c2c1ccn(CC(O)c1ccccc1)c2=O (stereo not drawn), which IC50 is on record?
A: Not Active

Q: With NC(=S)Nn1ccc2c(c1=O)C(=O)OC21CCCCC1 as the molecule, how does the IC50 read?
A: Not Active

Same assay, conditions: read-out: IC50

Q: Which IC50 does the source give for C[C@@]12OC(=O)[C@]1([C@@H](O)[C@@H]1C=CCCC1)NC(=O)[C@@H]2CCCl [MARIZOMIB] here?
A: 0.021 µM

Species on record: Oryctolagus cuniculus
Experiment: Inhibition of chymotrypsin-like activity of 20S proteasome in rabbit erythrocytes using Suc-LLVY-AMC as substrate at 100 uM preincubated for 15 mins measured after 45 mins by fluorescence assay relative to control
Assay type: cell-based
Details: not given

Q: With NC(=S)Nn1ccc2c(c1=O)C(=O)OC21CCCCC1 as the molecule, how does the inhibition read?
A: 23.8%

Molecular target: T1, Calpain-1 catalytic subunit (Homo sapiens, UniProt P07384)
T1 sequence (P07384 whole entry): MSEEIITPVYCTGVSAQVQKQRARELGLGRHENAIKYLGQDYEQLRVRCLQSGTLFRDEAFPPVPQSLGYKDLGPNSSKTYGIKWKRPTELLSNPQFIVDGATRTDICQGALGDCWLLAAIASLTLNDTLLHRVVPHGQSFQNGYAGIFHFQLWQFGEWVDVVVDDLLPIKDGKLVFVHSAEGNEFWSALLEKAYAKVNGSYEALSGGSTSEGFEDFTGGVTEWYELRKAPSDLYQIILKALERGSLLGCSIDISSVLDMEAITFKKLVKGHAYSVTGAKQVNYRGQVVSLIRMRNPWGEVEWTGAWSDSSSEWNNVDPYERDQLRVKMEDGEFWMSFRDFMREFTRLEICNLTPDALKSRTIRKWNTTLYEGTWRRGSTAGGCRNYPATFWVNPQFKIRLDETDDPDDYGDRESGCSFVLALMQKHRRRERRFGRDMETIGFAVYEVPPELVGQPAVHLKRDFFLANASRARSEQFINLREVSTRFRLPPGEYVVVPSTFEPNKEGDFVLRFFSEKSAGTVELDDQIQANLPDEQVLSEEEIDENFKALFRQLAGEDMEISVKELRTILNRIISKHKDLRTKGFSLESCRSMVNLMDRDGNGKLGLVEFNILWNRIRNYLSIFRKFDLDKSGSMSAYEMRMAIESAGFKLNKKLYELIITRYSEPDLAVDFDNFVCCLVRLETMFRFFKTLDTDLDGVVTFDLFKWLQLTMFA
Experiment: Inhibition of calpain 1 in human erythrocytes using Suc-LLVY-AMC as substrate by fluorescence assay
Assay type: cell-based
Details: not given

Q: For CC1(Cc2ccccc2)OC(=O)c2c1ccn(CCc1ccc(Cl)cc1)c2=O (racemic), which IC50 is on record?
A: 29.6 µM

Molecular target: Cathepsin B (Homo sapiens) (UniProt P07858)
Experiment: Inhibition of cathepsin B in human hepatocytes using Z-RR-AMC as substrate by fluorescence assay
Assay type: cell-based
Details: Hepatocyte

Q: For CC1(Cc2ccccc2)OC(=O)c2c1ccn(CCc1ccc(Cl)cc1)c2=O (racemic), which inhibition is on record?
A: inactive

Q: Which inhibition does the source give for NS(=O)(=O)c1ccc(-n2ccc3c(c2=O)C(=O)OC32CCCCC2)cc1 here?
A: inactive

Q: Which inhibition does the source give for CC1(CCc2ccccc2)OC(=O)c2c1ccn(CCCN1CCOCC1)c2=O (racemic) here?
A: inactive

Q: For Cn1ccc2c(c1=O)C(=O)OC2(C)c1ccccc1 (racemic), which inhibition is on record?
A: inactive

Q: Which inhibition does the source give for O=C1OC2(CCCCC2)c2ccn(CCCN3CCOCC3)c(=O)c21 here?
A: inactive

Q: With CC1(C)OC(=O)c2c1ccn(-c1ccc(S(=O)(=O)NC(=O)c3ccccc3)cc1)c2=O as the molecule, how does the inhibition read?
A: inactive

Q: For CC1(c2ccccc2)OC(=O)c2c1ccn(CCCN1CCOCC1)c2=O (racemic), which inhibition is on record?
A: inactive

Q: Which inhibition does the source give for CC1(C)OC(=O)c2c1ccn(-c1ccc(S(N)(=O)=O)cc1)c2=O here?
A: inactive

Q: Which inhibition does the source give for CC(C)CC1(C)OC(=O)c2c1ccn(-c1ccc(S(N)(=O)=O)cc1)c2=O (racemic) here?
A: inactive

Q: With CCN(CC)CC(O)Cn1ccc2c(c1=O)C(=O)OC21CCOC(C)(C)C1 (stereo not drawn) as the molecule, how does the inhibition read?
A: inactive

Q: Which inhibition does the source give for O=C1OC2(CCCCC2)c2ccn(CC(O)CO)c(=O)c21 (stereo not drawn) here?
A: inactive

Q: With O=C1OC2(CCCCC2)c2ccn(CC(O)c3ccccc3)c(=O)c21 (stereo not drawn) as the molecule, how does the inhibition read?
A: inactive

Q: With CCC1(C)OC(=O)c2c1ccn(-c1ccc(S(N)(=O)=O)cc1)c2=O (racemic) as the molecule, how does the inhibition read?
A: inactive

Q: With CCN(CC)CC(O)Cn1ccc2c(c1=O)C(=O)OC2(C)CCc1ccccc1 (mixture of isomers) as the molecule, how does the inhibition read?
A: inactive

Q: Which inhibition does the source give for CC(C)CC1(C)OC(=O)c2c1ccn(CC(O)c1ccccc1)c2=O (stereo not drawn) here?
A: inactive

Q: With NC(=S)Nn1ccc2c(c1=O)C(=O)OC21CCCCC1 as the molecule, how does the inhibition read?
A: inactive

Tested on: not listed separately
Experiment: Inhibition of caspase-like activity of 20S proteasome in rabbit erythrocytes using Z-LLE-betaNA as substrate preincubated for 15 mins measured after 45 mins by fluorescence assay
Assay type: cell-based, Oryctolagus cuniculus
Details: not given

Q: Which IC50 does the source give for NC(=S)Nn1ccc2c(c1=O)C(=O)OC21CCCCC1 here?
A: Not Active

Same assay, conditions: read-out: IC50

Q: Which IC50 does the source give for C[C@@]12OC(=O)[C@]1([C@@H](O)[C@@H]1C=CCCC1)NC(=O)[C@@H]2CCCl [MARIZOMIB] here?
A: 0.46 µM

Q: For CC1(Cc2ccccc2)OC(=O)c2c1ccn(CCc1ccc(Cl)cc1)c2=O (racemic), which IC50 is on record?
A: 7 µM

Q: Which IC50 does the source give for NS(=O)(=O)c1ccc(-n2ccc3c(c2=O)C(=O)OC32CCCCC2)cc1 here?
A: 6.6 µM

Q: With CC1(CCc2ccccc2)OC(=O)c2c1ccn(CCCN1CCOCC1)c2=O (racemic) as the molecule, how does the IC50 read?
A: 19.6 µM

Q: For Cn1ccc2c(c1=O)C(=O)OC2(C)c1ccccc1 (racemic), which IC50 is on record?
A: 36 µM

Q: With O=C1OC2(CCCCC2)c2ccn(CCCN3CCOCC3)c(=O)c21 as the molecule, how does the IC50 read?
A: 46.9 µM

Q: For CC1(C)OC(=O)c2c1ccn(-c1ccc(S(=O)(=O)NC(=O)c3ccccc3)cc1)c2=O, which IC50 is on record?
A: 4.5 µM

Q: With CC1(c2ccccc2)OC(=O)c2c1ccn(CCCN1CCOCC1)c2=O (racemic) as the molecule, how does the IC50 read?
A: 56.4 µM

Q: Which IC50 does the source give for CC1(C)OC(=O)c2c1ccn(-c1ccc(S(N)(=O)=O)cc1)c2=O here?
A: 6.1 µM

Q: With CC(C)CC1(C)OC(=O)c2c1ccn(-c1ccc(S(N)(=O)=O)cc1)c2=O (racemic) as the molecule, how does the IC50 read?
A: 4.6 µM

Q: For CCN(CC)CC(O)Cn1ccc2c(c1=O)C(=O)OC21CCOC(C)(C)C1 (stereo not drawn), which IC50 is on record?
A: 4.1 µM

Q: For O=C1OC2(CCCCC2)c2ccn(CC(O)CO)c(=O)c21 (stereo not drawn), which IC50 is on record?
A: 8.1 µM

Q: With O=C1OC2(CCCCC2)c2ccn(CC(O)c3ccccc3)c(=O)c21 (stereo not drawn) as the molecule, how does the IC50 read?
A: 11.9 µM

Q: With CCC1(C)OC(=O)c2c1ccn(-c1ccc(S(N)(=O)=O)cc1)c2=O (racemic) as the molecule, how does the IC50 read?
A: 4.9 µM

Q: Which IC50 does the source give for CCN(CC)CC(O)Cn1ccc2c(c1=O)C(=O)OC2(C)CCc1ccccc1 (mixture of isomers) here?
A: 2.5 µM

Q: With CC(C)CC1(C)OC(=O)c2c1ccn(CC(O)c1ccccc1)c2=O (stereo not drawn) as the molecule, how does the IC50 read?
A: 4.8 µM
